From ChEMBL document CHEMBL5715949, “Discovery of a selective irreversible BMX inhibitor for prostate cancer” (ACS Chem Biol, 2013)
Calls of active or inactive are those of the source. The rule behind the calls is not given here.

Assays:
BaF3 = assay: Antiproliferative activity against mouse BaF3 cells expressing TEL-fused JAK1 assessed growth inhibition incubated for 2 to 5 days by CellTiter-Glo assay; assay type: functional; details: time 2-5 day
RV-1 [1] = assay: Induction of apoptosis in human RV-1 cells at 2.5 uM incubated for 5 days in presence of […] by propidium iodide staining based flow cytometric analysis; assay type: functional, cell-based; details: time 5.0 day
[2] = Induction of cell cycle arrest in human RV-1 cells assessed as accumulation of cells at S phase at 2.5 uM incubated for 5 days by propidium iodide staining based flow cytometric analysis (reference value: 28.9 %); assay type: functional; details: time 5 day
RV-1 [3] = assay: Antiproliferative activity against human RV-1 cells assessed as reduction in cell viability at 500 to 2500 nM incubated for 5 days in presence of Torin2 by CellTiter-Glo assay; assay type: functional, cell-based; details: dose 500-2500 nM, time 5.0 day
[4] = tested on: Receptor-type tyrosine-protein kinase FLT3 (Homo sapiens), P36888 [UNDEFINED MUTATION]; assay: Inhibition of FLT3 ITD mutant (unknown origin) assessed as remaining activity at 1 uM by Kinome scan method relative to control
[5] = target: Dual specificity mitogen-activated protein kinase kinase 7 (Homo sapiens) (UniProt O14733); assay: Inhibition of MKK7 (unknown origin) assessed as remaining activity at 1 uM by Kinome scan method relative to control
RV-1 [6] = assay: Inhibition of MAPK signalling pathway in human RV-1 cells assessed as decrease in ERK1/2 phosphorylation at T202/204 residue at 2.5 uM incubated for 4 hrs by immunoblot analysis; assay type: cell-based
[7] = target: Serine/threonine-protein kinase MAK (Homo sapiens) (UniProt P20794); assay: Inhibition of MAK (unknown origin) assessed as remaining activity at 1 uM by Kinome scan method relative to control
[8] = target: MAP/microtubule affinity-regulating kinase 4 (Homo sapiens) (UniProt Q96L34); assay: Inhibition of MARK4 (unknown origin) assessed as remaining activity at 1 uM by Kinome scan method relative to control
MAP/microtubule affinity-regulating kinase 4 (Homo sapiens), sequence (Q96L34 whole entry): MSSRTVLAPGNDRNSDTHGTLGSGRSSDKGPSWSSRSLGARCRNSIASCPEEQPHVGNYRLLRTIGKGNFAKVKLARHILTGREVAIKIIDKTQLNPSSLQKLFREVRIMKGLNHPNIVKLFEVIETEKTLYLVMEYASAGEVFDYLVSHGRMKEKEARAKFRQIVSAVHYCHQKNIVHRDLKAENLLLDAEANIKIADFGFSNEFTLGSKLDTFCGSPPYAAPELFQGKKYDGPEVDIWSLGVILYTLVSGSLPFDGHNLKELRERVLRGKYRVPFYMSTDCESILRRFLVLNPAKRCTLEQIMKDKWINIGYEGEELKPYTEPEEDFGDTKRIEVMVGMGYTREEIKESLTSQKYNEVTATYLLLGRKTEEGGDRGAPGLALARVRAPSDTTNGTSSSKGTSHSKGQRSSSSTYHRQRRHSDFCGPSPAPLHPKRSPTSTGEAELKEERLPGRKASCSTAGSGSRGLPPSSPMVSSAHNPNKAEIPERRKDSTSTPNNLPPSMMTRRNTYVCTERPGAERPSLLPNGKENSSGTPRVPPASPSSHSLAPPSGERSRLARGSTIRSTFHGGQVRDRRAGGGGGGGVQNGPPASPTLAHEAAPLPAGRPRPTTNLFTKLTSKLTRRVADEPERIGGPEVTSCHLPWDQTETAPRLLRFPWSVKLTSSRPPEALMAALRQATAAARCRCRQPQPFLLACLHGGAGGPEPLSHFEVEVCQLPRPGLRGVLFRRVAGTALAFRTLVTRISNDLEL

[9] = target: Serine/threonine-protein kinase 4 (Homo sapiens) (UniProt Q13043); assay: Inhibition of MST1 (unknown origin) assessed as remaining activity at 1 uM by Kinome scan method relative to control
[10] = Cytotoxicity against mouse BaF3 cells assessed growth inhibition incubated for 2 to 5 days by CellTiter-Glo assay; assay type: toxicity, cell-based; details: time 2-5 day
[11] = Down regulation of BMX protein expression in human RV-1 cells expressing wild type BMX assessed protein expression level at 2.5 uM pre incubated for 4 hrs followed by compound wash out and additon of CHX and measured after 16 hrs by immunoblot analysis (reference value: 0.98 to 1.01); assay type: functional
[12] = target: Phosphorylase b kinase gamma catalytic chain, skeletal muscle/heart isoform (Homo sapiens) (UniProt Q16816); assay: Inhibition of PHKG1 (unknown origin) assessed as remaining activity at 1 uM by Kinome scan method relative to control
Phosphorylase b kinase gamma catalytic chain, skeletal muscle/heart isoform (Homo sapiens), sequence (Q16816 whole entry, looked up, canonical isoform): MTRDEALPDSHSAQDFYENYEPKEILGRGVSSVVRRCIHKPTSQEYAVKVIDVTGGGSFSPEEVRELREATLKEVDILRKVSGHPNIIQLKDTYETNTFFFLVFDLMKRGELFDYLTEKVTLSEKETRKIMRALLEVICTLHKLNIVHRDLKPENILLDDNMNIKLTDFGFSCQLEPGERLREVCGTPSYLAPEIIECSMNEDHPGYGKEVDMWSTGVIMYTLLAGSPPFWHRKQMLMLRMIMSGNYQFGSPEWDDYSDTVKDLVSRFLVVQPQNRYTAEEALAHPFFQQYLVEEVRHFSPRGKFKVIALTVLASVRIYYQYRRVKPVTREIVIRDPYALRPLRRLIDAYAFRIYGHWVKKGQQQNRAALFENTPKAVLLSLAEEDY

[13] = Induction of cell cycle arrest in human RV-1 cells assessed as accumulation of cells at G1 phase at 2.5 uM incubated for 5 days by propidium iodide staining based flow cytometric analysis (reference value: 59.7 %); assay type: functional; details: time 5 day
[14] = target: cAMP-dependent protein kinase catalytic subunit beta (Homo sapiens) (UniProt P22694); assay: Inhibition of PKAC-beta (unknown origin) assessed as remaining activity at 1 uM by Kinome scan method relative to control
[15] = target: Mitogen-activated protein kinase 14 (Homo sapiens) (UniProt Q16539); assay: Inhibition of P38alpha (unknown origin) assessed as remaining activity at 1 uM by Kinome scan method relative to control
Mitogen-activated protein kinase 14 (Homo sapiens), sequence (Q16539 whole entry): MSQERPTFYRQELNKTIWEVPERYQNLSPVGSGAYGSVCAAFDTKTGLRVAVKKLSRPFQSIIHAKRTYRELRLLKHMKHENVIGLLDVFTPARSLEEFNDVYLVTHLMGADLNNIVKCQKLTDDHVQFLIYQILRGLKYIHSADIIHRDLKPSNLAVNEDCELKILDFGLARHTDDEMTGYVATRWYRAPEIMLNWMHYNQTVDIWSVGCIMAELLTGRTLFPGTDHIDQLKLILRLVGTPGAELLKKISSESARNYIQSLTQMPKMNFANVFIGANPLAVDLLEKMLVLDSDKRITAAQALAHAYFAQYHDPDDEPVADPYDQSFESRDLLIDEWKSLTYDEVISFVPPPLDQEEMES

[16] = target: Protein kinase C delta type (Homo sapiens) (UniProt Q05655); assay: Inhibition of PRKCD (unknown origin) assessed as remaining activity at 1 uM by Kinome scan method relative to control
[17] = target: Serine/threonine-protein kinase D2 (Homo sapiens) (UniProt Q9BZL6); assay: Inhibition of PRKD2 (unknown origin) assessed as remaining activity at 1 uM by Kinome scan method relative to control
[18] = tested on: Hepatocyte growth factor receptor (Homo sapiens), P08581 [M1250T]; assay: Inhibition of MET M1250T mutant (unknown origin) assessed as remaining activity at 1 uM by Kinome scan method relative to control
[19] = target: Serine/threonine-protein kinase PAK 5 (Homo sapiens) (UniProt Q9P286); assay: Inhibition of PAK7 (unknown origin) assessed as remaining activity at 1 uM by Kinome scan method relative to control
[20] = target: Serine/threonine-protein kinase BRSK2 (Homo sapiens) (UniProt Q8IWQ3); assay: Inhibition of BRSK2 (unknown origin) assessed as remaining activity at 1 uM by Kinome scan method relative to control
[21] = target: Focal adhesion kinase 1 (Homo sapiens) (UniProt Q05397); assay: Inhibition of FAK (unknown origin) assessed as remaining activity at 1 uM by Kinome scan method relative to control
Focal adhesion kinase 1 (Homo sapiens), sequence (Q05397 2-1052 limits assumed): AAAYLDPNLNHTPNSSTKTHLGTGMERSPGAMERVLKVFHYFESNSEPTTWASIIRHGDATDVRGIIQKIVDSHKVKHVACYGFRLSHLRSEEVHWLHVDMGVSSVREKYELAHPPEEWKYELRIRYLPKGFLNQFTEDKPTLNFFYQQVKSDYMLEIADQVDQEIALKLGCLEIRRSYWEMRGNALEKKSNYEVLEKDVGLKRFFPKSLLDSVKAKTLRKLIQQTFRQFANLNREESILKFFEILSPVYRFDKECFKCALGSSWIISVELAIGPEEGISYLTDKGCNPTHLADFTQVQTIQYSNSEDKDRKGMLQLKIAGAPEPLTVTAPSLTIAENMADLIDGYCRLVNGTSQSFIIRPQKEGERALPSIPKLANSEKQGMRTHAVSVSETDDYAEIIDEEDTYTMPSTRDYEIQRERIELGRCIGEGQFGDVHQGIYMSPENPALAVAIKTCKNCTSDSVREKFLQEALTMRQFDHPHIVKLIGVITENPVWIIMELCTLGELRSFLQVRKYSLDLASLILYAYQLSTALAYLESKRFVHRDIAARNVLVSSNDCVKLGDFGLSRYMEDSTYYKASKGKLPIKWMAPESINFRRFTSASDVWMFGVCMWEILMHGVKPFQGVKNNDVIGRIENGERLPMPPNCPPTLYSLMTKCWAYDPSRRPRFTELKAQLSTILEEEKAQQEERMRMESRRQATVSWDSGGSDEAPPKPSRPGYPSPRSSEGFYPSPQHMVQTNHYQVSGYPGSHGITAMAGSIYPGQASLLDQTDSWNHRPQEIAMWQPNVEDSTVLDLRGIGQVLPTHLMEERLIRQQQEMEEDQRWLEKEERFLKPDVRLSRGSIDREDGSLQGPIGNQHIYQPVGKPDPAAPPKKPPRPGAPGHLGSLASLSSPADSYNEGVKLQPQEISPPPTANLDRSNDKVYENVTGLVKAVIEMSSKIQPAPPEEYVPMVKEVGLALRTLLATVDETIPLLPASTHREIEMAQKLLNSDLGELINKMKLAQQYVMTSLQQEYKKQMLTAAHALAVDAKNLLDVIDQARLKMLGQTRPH

[22] = target: Citron Rho-interacting kinase (Homo sapiens) (UniProt O14578); assay: Inhibition of CIT (unknown origin) assessed as remaining activity at 1 uM by Kinome scan method relative to control
[23] = target: Bone morphogenetic protein receptor type-1A (Homo sapiens) (UniProt P36894); assay: Inhibition of BMPR1A (unknown origin) assessed as remaining activity at 1 uM by Kinome scan method relative to control
Bone morphogenetic protein receptor type-1A (Homo sapiens), sequence (P36894 whole entry): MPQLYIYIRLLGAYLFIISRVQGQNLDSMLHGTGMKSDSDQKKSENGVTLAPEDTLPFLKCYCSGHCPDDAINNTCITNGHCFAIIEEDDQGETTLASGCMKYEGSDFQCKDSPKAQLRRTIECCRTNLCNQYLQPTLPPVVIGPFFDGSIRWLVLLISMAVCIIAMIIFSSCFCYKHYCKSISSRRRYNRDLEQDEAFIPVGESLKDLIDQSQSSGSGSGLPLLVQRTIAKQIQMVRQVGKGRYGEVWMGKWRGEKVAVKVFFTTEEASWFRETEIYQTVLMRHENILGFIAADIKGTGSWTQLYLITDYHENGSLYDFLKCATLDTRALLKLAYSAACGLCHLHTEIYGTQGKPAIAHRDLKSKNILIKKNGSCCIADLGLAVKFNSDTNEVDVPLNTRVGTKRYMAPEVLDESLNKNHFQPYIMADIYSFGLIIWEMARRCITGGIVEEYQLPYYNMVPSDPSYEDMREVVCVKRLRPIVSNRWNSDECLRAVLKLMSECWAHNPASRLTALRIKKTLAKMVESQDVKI

[24] = Down regulation of BMX protein expression in human RV-1 cells expressing BMX C496S mutant assessed protein expression level at 2.5 uM pre incubated for 4 hrs followed by compound wash out and additon of CHX and measured after 16 hrs by immunoblot analysis (reference value: 1.01 to 1.13); assay type: functional
[25] = target: Calcium/calmodulin-dependent protein kinase type II subunit alpha (Homo sapiens) (UniProt Q9UQM7); assay: Inhibition of CAMK2A (unknown origin) assessed as remaining activity at 1 uM by Kinome scan method relative to control
Calcium/calmodulin-dependent protein kinase type II subunit alpha (Homo sapiens), sequence (Q9UQM7 whole entry): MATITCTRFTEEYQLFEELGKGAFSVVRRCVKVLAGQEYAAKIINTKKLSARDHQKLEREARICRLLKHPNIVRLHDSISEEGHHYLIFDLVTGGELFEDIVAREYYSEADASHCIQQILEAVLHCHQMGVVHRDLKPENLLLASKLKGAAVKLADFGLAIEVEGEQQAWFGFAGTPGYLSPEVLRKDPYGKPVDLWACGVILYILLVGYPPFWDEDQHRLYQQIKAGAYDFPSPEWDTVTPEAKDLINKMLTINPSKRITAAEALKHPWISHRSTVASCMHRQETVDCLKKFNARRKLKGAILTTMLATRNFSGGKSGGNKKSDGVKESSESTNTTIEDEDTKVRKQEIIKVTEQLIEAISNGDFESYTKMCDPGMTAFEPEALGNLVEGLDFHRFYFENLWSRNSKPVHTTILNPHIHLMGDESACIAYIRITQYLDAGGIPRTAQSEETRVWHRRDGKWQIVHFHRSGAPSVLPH

[26] = target: Inhibitor of nuclear factor kappa-B kinase subunit beta (Homo sapiens) (UniProt O14920); assay: Inhibition of IKK-beta (unknown origin) assessed as remaining activity at 1 uM by Kinome scan method relative to control
[27] = target: Macrophage colony-stimulating factor 1 receptor (Homo sapiens) (UniProt P07333); assay: Inhibition of CSF1R (unknown origin) assessed as remaining activity at 1 uM by Kinome scan method relative to control
Macrophage colony-stimulating factor 1 receptor (Homo sapiens), sequence (P07333 whole entry): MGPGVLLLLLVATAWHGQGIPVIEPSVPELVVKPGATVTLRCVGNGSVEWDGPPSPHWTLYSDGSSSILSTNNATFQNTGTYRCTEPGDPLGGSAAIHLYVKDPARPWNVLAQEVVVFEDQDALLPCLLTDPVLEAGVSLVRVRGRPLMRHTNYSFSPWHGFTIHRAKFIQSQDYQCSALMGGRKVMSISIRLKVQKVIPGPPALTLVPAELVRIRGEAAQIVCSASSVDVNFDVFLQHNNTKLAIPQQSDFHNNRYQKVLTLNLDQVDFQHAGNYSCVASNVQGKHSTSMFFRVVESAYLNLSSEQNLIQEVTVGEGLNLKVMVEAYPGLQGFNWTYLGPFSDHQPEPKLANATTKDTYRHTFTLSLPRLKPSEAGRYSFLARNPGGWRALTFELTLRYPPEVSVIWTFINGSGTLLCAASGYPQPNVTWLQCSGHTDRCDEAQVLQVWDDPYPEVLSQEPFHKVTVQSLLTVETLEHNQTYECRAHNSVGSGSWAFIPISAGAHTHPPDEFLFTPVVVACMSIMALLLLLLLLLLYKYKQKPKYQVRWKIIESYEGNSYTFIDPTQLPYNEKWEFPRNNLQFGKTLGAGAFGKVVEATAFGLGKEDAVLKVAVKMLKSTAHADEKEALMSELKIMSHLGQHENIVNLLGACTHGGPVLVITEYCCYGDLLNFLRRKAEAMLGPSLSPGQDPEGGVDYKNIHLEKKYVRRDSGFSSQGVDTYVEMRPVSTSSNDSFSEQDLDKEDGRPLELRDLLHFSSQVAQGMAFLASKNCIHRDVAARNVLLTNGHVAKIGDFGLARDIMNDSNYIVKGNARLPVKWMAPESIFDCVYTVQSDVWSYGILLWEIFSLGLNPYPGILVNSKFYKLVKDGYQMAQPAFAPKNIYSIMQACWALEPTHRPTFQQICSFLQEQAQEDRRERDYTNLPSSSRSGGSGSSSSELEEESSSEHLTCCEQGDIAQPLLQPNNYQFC

[28] = tested on: Receptor-type tyrosine-protein kinase FLT3 (Homo sapiens), P36888 [N841I]; assay: Inhibition of FLT3 N841I mutant (unknown origin) assessed as remaining activity at 1 uM by Kinome scan method relative to control
RV-1 [29] = assay: Down regulation of BMX protein expression in human RV-1 cells expressing wild type BMX at 5 uM incubated for 72 hrs by western blot analysis; assay type: functional, cell-based
[30] = tested on: Mast/stem cell growth factor receptor Kit (Homo sapiens), P10721 [A829P]; assay: Inhibition of KIT A829P mutant (unknown origin) assessed as remaining activity at 1 uM by Kinome scan method relative to control
[31] = target: Serine/threonine-protein kinase 16 (Homo sapiens) (UniProt O75716); assay: Inhibition of STK16 (unknown origin) assessed as remaining activity at 1 uM by Kinome scan method relative to control
Serine/threonine-protein kinase 16 (Homo sapiens), sequence (O75716 whole entry): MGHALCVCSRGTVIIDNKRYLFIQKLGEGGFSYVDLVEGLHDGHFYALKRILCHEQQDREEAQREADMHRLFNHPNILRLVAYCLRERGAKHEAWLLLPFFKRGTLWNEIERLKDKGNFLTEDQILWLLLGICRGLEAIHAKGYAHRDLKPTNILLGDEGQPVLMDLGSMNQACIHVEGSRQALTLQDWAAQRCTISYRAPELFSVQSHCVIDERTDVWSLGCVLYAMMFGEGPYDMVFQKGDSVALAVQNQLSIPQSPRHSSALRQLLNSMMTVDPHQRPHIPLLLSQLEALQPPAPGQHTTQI

C=CC(=O)Nc1cc(-n2c(=O)ccc3cnc4ccc(-c5ccc(NS(C)(=O)=O)cc5)cc4c32)ccc1C
GI50 (BaF3): 4.92 µM
Activity (RV-1 [1]): Active
Activity [2]: 20.6%
Activity (RV-1 [3]): Active
Activity [4]: 99%
Activity [5]: 49%
inhibition (RV-1 [6]): inactive
Activity [7]: 70%
Activity [8]: 80%
Activity [9]: 92%
GI50 [10]: > 10 µM
Activity [11]: 0.28
Activity [12]: 86%
Activity [13]: 70.3%
Activity [14]: 79%
Activity [15]: 98%
Activity [16]: 41%
Activity [17]: 87%
Activity [18]: 80%
Activity [19]: 98%
Activity [20]: 84%
Activity [21]: 96%
Activity [22]: 83%
Activity [23]: 84%
Activity [24]: 0.74
Activity [25]: 98%
Activity [26]: 93%
Activity [27]: 94%
Activity [28]: 85%
Activity (RV-1 [29]): Active
Activity [30]: 74%
Activity [31]: 98%
